Data set [1] relates to NIL B, SV-NIL and BALB/C 3T3 cells. Kind of data set: effectiveness as cell and tissue culture buffers (overall, cell lines tested). The conditions noted are these: selected media; for effectiveness as culture buffer compared with HEPES: vs HEPES; for effectiveness as culture buffer compared with NaHCO3:CO2 system (control): vs NaHCO3:CO2 control.
Experimental: The cell lines used in the tests were NIL B, a hamster fibroblast line; SV-NIL, an SV40-virus transformed line derived from NIL B; and BALB/C 3T3, a mouse embryo tissue. The cells were seeded into T-flasks (screw-capped polystyrene flasks) with a 25 cm^2 area. On the control flask (CO2 atmosphere), the cap was kept loose to allow gas circulation while the caps on the experimental culture flasks were screwed on tightly. The medium used in these tests was Eagle's MEM 4X (see pages 108-112 of Paul, Cell and Tissue Culture, 5th Edition, 1975), in an Earle's salt solution (page 95 of same text) modified to contain 2.2 g/l of bicarbonate for the experimental buffers. The control was not so modified. The control flask was incubated at 37° C. in an atmosphere of 5% CO2 in air whereas the other flasks were incubated at 37° C. in an air atmosphere. The medium was changed every other day.
At appointed times, triplicate flasks were harvested using trypsin, and the approximate cell population was determined using a Coulter electronic particle counter.
Data set [2] can be described thus: solubility of the zwitterion on acidification. The format is physicochemical. The conditions noted are these: acidified to pH 1.5 with HCl, water.
The conditions of data set [3]: cited from earlier work.
For data set [4] the following is noted: use as buffer in biological research; cited from earlier work.

The structures appear in SMILES notation.

Regarding `O=S(=O)(O)CC(O)CN1CCN(CCO)CC1` (centres unmarked) [Example 3, N-hydroxyethyl piperazine-N'-2 hydroxypropyl sulfonic acid], in data set [1], the “effectiveness as culture buffer compared with HEPES” value is “as good as, if not better than” and the “effectiveness as culture buffer compared with NaHCO3:CO2 system (control)” value is reported as “as good as, if not better than”.
For the molecule `O=S(=O)(O)CC(O)CN1CCN(CC(O)CS(=O)(=O)O)CC1` (centres unmarked) [Example 4, Piperazine-N,N'-2-hydroxypropyl sulfonic acid (dihydrate)], in data set [2], the solubility entry is “very insoluble”.
For `O=S(=O)(O)CC(O)CN1CCOCC1` (centres unmarked) [Example 6, 3-(N-morpholino)-2-hydroxypropyl sulfonic acid], in data set [1], the “effectiveness as culture buffer compared with HEPES” value is given as “about as good as” and the “effectiveness as culture buffer compared with NaHCO3:CO2 system (control)” value is “not as good as”.
Turning to `NC(CO)(CO)CO` [Tris, tris-(hydroxy-methyl)aminomethane], in data set [3] (below pH 7.5), the buffering capacity result is listed as “poor buffering capacity”. Besides, in data set [3] (primary aliphatic amine), the reactivity result is “considerable reactivity”. The inhibitory side effect result in data set [4] is “often inhibitory”.

Values taken from patent US4246194A, “Amino-hydroxy-alkyl sulfonic acid-zwitterions” (priority 1979, dated 1981).
